Entries after “also recorded” stand apart in the source; their conditions may differ. Like-named read-outs stand apart in the source and are kept apart here.
Assays:
[1] = test system: AML primagraft (D835Y+, FLT3-ITD+) cells; assay: Treatment of mutant FLT3-expressing AML primagraft cells ex vivo; type: cell-based, human; details: read-out: IC50 (+/−S.D.) AML primagraft (D835Y+, FLT3-ITD+)
Description: All animal studies were performed according to protocols approved by the Dana-Farber Cancer Institute's Institutional Animal Care and Use Committee. […] Mice were sacrificed on day 21 of treatment. Bone marrow was flushed from mouse femurs, and spleens and livers were dissected and preserved first in formalin, followed 24 hours later by preservation in 70% ethanol. […] All AML primagraft samples used in the studies described herein were obtained through the Public Repository of Xenografts (proxe.org).
(§1) The CellTiter-Glo® assay (Promega, Madison, Wis.) was used for proliferation studies and carried out according to manufacturer instructions. Cell viability is reported as percentage of control (untreated) cells, and error bars represent the standard error of the mean for each data point.

USP7 = USP7 (Homo sapiens, UniProt Q93009); assay: USP7 IC50 of HBX19818 analogs (Table 9); type: biochemical; details: read-out: USP7 IC50 +/− SEM
USP7, sequence (Q93009 whole entry): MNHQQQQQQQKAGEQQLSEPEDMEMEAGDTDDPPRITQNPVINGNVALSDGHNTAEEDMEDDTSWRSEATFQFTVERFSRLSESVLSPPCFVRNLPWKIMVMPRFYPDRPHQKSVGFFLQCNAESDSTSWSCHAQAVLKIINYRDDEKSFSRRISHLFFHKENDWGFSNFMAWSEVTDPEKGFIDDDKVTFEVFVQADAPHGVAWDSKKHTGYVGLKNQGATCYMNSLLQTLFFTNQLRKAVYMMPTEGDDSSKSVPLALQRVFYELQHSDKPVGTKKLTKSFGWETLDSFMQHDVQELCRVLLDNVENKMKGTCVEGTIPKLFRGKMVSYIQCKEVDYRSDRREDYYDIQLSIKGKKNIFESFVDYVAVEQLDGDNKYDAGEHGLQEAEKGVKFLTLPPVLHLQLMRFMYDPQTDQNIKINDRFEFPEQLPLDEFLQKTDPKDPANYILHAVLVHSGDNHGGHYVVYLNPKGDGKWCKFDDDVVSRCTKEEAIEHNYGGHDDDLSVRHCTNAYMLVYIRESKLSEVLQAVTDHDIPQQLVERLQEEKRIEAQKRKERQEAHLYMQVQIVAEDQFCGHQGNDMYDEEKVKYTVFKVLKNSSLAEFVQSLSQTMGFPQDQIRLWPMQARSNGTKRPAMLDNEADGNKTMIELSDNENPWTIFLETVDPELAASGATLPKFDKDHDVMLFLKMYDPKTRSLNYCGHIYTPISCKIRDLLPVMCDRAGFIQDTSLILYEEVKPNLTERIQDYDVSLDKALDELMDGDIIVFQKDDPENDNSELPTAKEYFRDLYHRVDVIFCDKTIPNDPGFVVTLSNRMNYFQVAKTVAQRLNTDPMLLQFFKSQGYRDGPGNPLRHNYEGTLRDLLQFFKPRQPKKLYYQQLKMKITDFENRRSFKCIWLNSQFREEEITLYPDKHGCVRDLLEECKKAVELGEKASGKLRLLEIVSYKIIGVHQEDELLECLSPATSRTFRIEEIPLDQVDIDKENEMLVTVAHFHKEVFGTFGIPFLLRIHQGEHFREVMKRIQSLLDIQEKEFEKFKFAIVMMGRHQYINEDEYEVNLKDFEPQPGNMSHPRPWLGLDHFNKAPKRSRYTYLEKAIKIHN

MV4,11 = assay: Anti-proliferation, 24 hr treatment (CellTiter-Glo); type: cell-based, human; details: 24 hr treatment; MV4,11 (FLT3-ITD); read-out: Anti-proliferation IC50
Text: (§2) Nomo-1, P31-FUJ, and NB4 were obtained from Dr. Gary Gilliland. MV4, 11 cells were obtained from Dr. Anthony Letai. Hel, K562, THP, U937, TF-1 and K052 cells were purchased from the American Type Culture Collection (ATCC) (Manassas, Va., USA). […] Cell lines were submitted for cell line authentication and were authenticated within 6 months of manuscript preparation through cell line short tandem repeat (STR) profiling (DDC Medical, Fairfield, Ohio and Molecular Diagnostics Laboratory, Dana Farber Cancer Institute). […] PBMCs were generously provided by Dr. Steven Treon and Dr. Guang Yang.
as §1

U937 = assay: as above; type: cell-based, human; details: 24 hr treatment; U937 (FLT3 wt or null); read-out: Anti-proliferation IC50
Text: as §2, §1

MOLM13-luc+ = assay: as above; type: cell-based, human; details: 24 hr treatment; MOLM13-luc+ (FLT3-ITD); read-out: Anti-proliferation IC50
Text: as §2, §1

NB4-luc+ = assay: as above; type: cell-based, human; details: 24 hr treatment; NB4-luc+ (FLT3 wt or null); read-out: Anti-proliferation IC50
Text: as §2, §1

NOMO-1 = assay: as above; type: cell-based, human; details: 24 hr treatment; NOMO-1 (FLT3 wt or null); read-out: Anti-proliferation IC50
Text: as §2, §1

K562 = assay: as above; type: cell-based, human; details: 24 hr treatment; K562 (FLT3 wt or null); read-out: Anti-proliferation IC50
Text: as §2, §1

TF-1 = assay: as above; type: cell-based, human; details: 24 hr treatment; TF-1 (FLT3 null); read-out: Anti-proliferation IC50
Text: as §2, §1

MOLM14 = assay: as above; type: cell-based, human; details: 24 hr treatment; MOLM14 (FLT3-ITD); read-out: Anti-proliferation IC50
Text: as §2, §1

OCI-AML5 = assay: as above; type: cell-based, human; details: 24 hr treatment; OCI-AML5 (FLT3 wt or null); read-out: Anti-proliferation IC50
Text: as §2, §1

K052 = assay: as above; type: cell-based, human; details: 24 hr treatment; K052 (FLT3 wt or null); read-out: Anti-proliferation IC50
Text: as §2, §1

P31 = assay: as above; type: cell-based, human; details: 24 hr treatment; P31 (FLT3 wt or null); read-out: Anti-proliferation IC50
Text: as §2, §1

HEL = assay: as above; type: cell-based, human; details: 24 hr treatment; HEL (FLT3 wt or null); read-out: Anti-proliferation IC50
Text: as §2, §1

[2] = test system: mutant FLT3-expressing cells; assay: Dynamic BH3 profiling (mitochondrial priming); type: cell-based, human; details: cytochrome c release in response to Bim peptide, 14 h; compared to wt or null FLT3-expressing cells
Description: To determine drug-induced changes in mitochondrial priming, dynamic BH3 profiling was performed as previously described in Montero et al. (2015) Cell 160:977-989 and Pan et al. (2014) Cancer Discov. 4:362-375. Briefly, 0.4×10^6 cells/well were exposed to drug treatment for 14 hours. At the end of incubation time, cells were washed in PBS, pelleted at 500×g for 5 min, and resuspended in MEB buffer. Fifteen μl of cell suspension was added to each well of 384 well plate containing 15 μl of MEB buffer containing 20 μg/mL digitonin and BH3 peptides at twice their final concentration, and the mixture was incubated for 60 min at 26° C. to allow mitochondrial depolarization. Peptide exposure was then terminated by adding 10 μl 4% formaldehyde in PBS for 15 min, followed by neutralization with N2 buffer (1.7M Tris, 1.25M glycine, pH 9.1) for 10 min. In order to determine cytochrome C levels, anti-cytochrome C clone 6H2.B4 conjugated to Alexa Fluor® 647 (BD Bioscience) was diluted 1:50 in 10× staining buffer (10% BSA, 2% Tween-20 and 0.02% sodium azide in PBS) and 10 μl of this antibody-containing buffer was added to each well for a final dilution of 1:400. Cells were stained overnight at 4° C. in dark and data were acquired on a BD LSRFortessa™ analyzer (BD Biosciences). Priming change (Δ) was calculated by comparing cytochrome C abundance in treated cells to that of DMSO-treated control cells.

PBMCs = assay: Treatment of PBMCs from healthy donors with USP10-targeting inhibitors; type: cell-based, human
Text: as §2, §1

USP10 = USP10 (Homo sapiens, UniProt Q14694); assay: MALDI TOF DUB assay with diubiquitin substrate; type: biochemical; details: diubiquitin (K11) as substrate
USP10, sequence (Q14694 whole entry): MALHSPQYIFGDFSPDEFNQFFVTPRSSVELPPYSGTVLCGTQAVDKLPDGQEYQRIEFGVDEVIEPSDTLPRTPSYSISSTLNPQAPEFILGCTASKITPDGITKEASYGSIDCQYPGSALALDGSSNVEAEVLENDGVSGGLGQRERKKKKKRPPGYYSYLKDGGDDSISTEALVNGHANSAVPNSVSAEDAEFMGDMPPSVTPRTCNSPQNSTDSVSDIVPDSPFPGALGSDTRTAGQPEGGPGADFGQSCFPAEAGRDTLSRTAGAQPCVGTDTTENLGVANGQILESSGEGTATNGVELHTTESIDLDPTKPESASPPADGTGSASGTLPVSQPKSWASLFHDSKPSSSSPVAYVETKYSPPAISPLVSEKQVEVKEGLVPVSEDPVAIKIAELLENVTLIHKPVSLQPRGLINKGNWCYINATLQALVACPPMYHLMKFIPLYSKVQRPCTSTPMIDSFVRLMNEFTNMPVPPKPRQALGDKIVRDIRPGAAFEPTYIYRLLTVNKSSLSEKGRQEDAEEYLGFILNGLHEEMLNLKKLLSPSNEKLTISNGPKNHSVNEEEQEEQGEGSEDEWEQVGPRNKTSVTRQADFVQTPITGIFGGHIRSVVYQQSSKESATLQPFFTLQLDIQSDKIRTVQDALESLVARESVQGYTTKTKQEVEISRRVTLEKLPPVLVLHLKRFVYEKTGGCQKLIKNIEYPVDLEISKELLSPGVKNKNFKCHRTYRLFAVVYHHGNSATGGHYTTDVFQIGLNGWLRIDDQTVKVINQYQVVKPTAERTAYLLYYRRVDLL
Description: Thirty-one human DUBs were freshly diluted in the reaction buffer (40 mM Tris-HCl, pH 7.6, 5 mM DTT, 0.005% BSA) at different concentrations (see Table 10). […] The enzymes were pre-incubated with the compounds for 30 min at room temperature at 10 μM final concentration. 0.48 μl of di-ubiquitin topoisomers were added to the reaction mixture to initiate the reaction. The reaction was sealed and incubated for 30 min at room temperature and stopped by adding TFA to a final concentration of 2% (v/v).
Mass spectrometry data was acquired on an UltrafleXtreme MALDI-TOF mass spectrometer (Bruker Daltonics) with Compass 1.3 control and processing software. The sample carrier was taught before each analysis to optimize and centre laser shooting. […] Samples were analysed in automatic mode (AutoXecute, Bruker Daltonics). […] An amount of 3,500 shots were summed up in “random walk” and with “large” smartbeam laser focus. Spectra were automatically calibrated on the ^15N-Ub m/z and processed using smoothing (Savitzky-Golay algorithm) and baseline subtraction (‘TopHat’) for reproducible peak annotation on non-resolved isotope distributions: one cycle, 0.2 m/z for the width. For area calculation, the complete isotopic distribution was taken into account. […]

[3] = biological target: T1, human USP10 (residues 376-798) (Homo sapiens, UniProt Q14694); assay: In vitro USP10 activity assay (Ubiquitin-AMC); type: biochemical; details: ubiquitin-AMC as substrate; purified enzyme; read-out: USP10 biochemical IC50
T1 construct: A construct of human USP10 covering residues 376-798 in the pET28a vector; His-tag (cleaved yes); made in house; host or cells: E. coli BL21 (DE3)
T1 sequence (Q14694 376-798): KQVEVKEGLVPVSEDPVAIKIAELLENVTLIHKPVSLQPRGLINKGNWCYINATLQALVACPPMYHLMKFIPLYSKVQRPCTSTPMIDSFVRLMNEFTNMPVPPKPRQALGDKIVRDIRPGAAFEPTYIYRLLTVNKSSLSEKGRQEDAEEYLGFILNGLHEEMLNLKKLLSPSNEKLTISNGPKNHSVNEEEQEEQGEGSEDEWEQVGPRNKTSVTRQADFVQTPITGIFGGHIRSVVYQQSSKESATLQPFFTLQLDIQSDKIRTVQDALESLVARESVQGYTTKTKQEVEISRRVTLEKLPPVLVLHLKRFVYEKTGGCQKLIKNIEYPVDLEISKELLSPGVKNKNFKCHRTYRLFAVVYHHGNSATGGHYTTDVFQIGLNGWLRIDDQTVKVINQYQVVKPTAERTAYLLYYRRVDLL
Description: Protein expression and purification. A construct of human USP10 covering residues 376-798 in the pET28a vector was over-expressed in E. coli BL21 (DE3) in TB medium in the presence of […] of kanamycin. Cells were grown at 37° C. to an OD of 0.8, cooled to 17° C., induced with 500 μM isopropyl-1-thio-D-galactopyranoside, incubated overnight at 17° C., collected by centrifugation, and stored at −80° C. Cell pellets were sonicated in buffer A (50 mM HEPES (pH 7.5), 300 mM NaCl, 10% glycerol, 10 mM Imidazole, and 3 mM BME) and the resulting lysate was centrifuged at 30,000×g for 30 min. Ni-NTA beads (Qiagen) were mixed with lysate supernatant for 30 min and washed with buffer A. Beads were transferred to an FPLC-compatible column and the bound protein was washed with 15% buffer B (50 mM HEPES (pH 7.5), 300 mM NaCl, 10% glycerol, 300 mM Imidazole, and 3 mM BME) and eluted with 100% buffer B. Thrombin was added to the eluted protein and incubated at 4° C. overnight. The sample was then passed through a HiPrep 26/10 desalting column (GE Healthcare) pre-equilibrated with buffer A without imidazole, and the eluted protein was subjected to a second Ni-NTA step to remove His-tag and Thrombin. The eluent was concentrated and passed through a Superdex® 200 10/300GL column (GE Healthcare) in a buffer containing 20 mM HEPES (pH 7.5), 150 mM NaCl, and 1 mM DTT. Fractions were pooled, concentrated to 20 mg/ml, and frozen at −80° C.
In vitro USP10 activity assay. Recombinant USP10, residues 376-798, was tested for its activity in a Ubiquitin-AMC assay in presence or absence of inhibitors. For this assay, 10 nM USP10 were pre-incubated with different concentrations of inhibitors or DMSO as a control in 50 mM HEPES pH7.6, 0.5 mM EDTA, 11 uM ovalbumin, and 5 mM DTT. The reaction was incubated for 6 hours at room temperature prior to the addition of 2 uM Ubiquitin-AMC (Boston Biochem) substrate. The initial rate of the reaction was measured by collecting fluorescence data at one minute intervals over 30-minute period using a CLARIOstar® fluorescence plate reader at excitation and emission wavelength of 345 and 445 nm, respectively. The calculated initial rate values were plotted against inhibitor concentrations to determine IC50 values.

[4] = test system: FLT3-ITD+, D835Y+ AML primagraft; assay: Primagraft study in NSG mice; type: in vivo; details: 15 mg/kg
Description: All animal studies were performed according to protocols approved by the Dana-Farber Cancer Institute's Institutional Animal Care and Use Committee. […]. Mice were sacrificed on day 21 of treatment. Bone marrow was flushed from mouse femurs, and spleens and livers were dissected and preserved first in formalin, followed 24 hours later by preservation in 70% ethanol. […]; All AML primagraft samples used in the studies described herein were obtained through the Public Repository of Xenografts (proxe.org).

[5] = test system: Ba/F3-FLT3-ITD-luc+ cells; assay: Non-invasive in vivo bioluminescence study

O=C(NCCN1CCN(Cc2ccccc2)CC1)c1ccc2nc3c(c(Cl)c2c1)CCCC3 [C598-0571]
IC50 ([1]; 24 hr assay): 10.3 µM
IC50 ([1]; 72 hr assay): 1.4 µM
IC50 (USP7): 22 µM
IC50 (MV4,11): 9.2 µM
IC50 (U937): 21.9 µM
IC50 (MOLM13-luc+): 12.6 µM
IC50 (NB4-luc+): 29 µM
IC50 (NOMO-1): 20.9 µM
IC50 (K562): 35.9 µM
IC50 (TF-1): 18.4 µM
IC50 (MOLM14): 18.6 µM
IC50 (OCI-AML5): 37.7 µM
IC50 (K052): 35.1 µM
IC50 (P31): 30 µM
IC50 (HEL): 40.7 µM
Mitochondrial priming for apoptosis [2]: more strongly
IC50 (PBMCs; 24 hr assay, PBMC#1, read-out: IC50 (+/−S.D.) PBMC#1): 32.3 µM
IC50 (PBMCs; 24 hr assay, PBMC#2, read-out: IC50 (+/−S.D.) PBMC#2): 31.3 µM
IC50 (PBMCs; 72 hr assay, PBMC#1, read-out: IC50 (+/−S.D.) PBMC#1): 16.6 µM
IC50 (PBMCs; 72 hr assay, PBMC#2, read-out: IC50 (+/−S.D.) PBMC#2): 14.8 µM

CC(=O)c1cc([N+](=O)[O-])c(Sc2ccc(F)cc2F)s1 [P22077]
IC50 ([1]; Homo sapiens, 24 h): 6.9 µM
IC50 ([1]; Homo sapiens, 72 h): 2.6 µM
IC50 (USP10): 6 µM
IC50 [3]: 15 µM
Tolerability ([4]; 21-day treatment period): generally well-tolerated; also recorded: generally well tolerated
Average weight loss ([4]; 21 days, same for vehicle-treated, none below 15% weight loss): 2 to 3 g
Reduction in luciferase-positive signal in bone marrow versus vehicle ([5]; 50 mg/kg IP BID, 4 days): approximately 2 fold
Lower percentage of FLT3 expression in bone marrow versus vehicle ([5]; 50 mg/kg IP BID, 4 days, flow cytometry): approximately 2 fold
Vital organ toxicity ([5]; mouse studies): no evidence of vital organ toxicity
Body weight versus vehicle ([5]; treated for up to 11 days): no significant difference in weight
IC50 (PBMCs; Homo sapiens, 24 hr assay, PBMC#1, read-out: IC50 (+/−S.D.) PBMC#1): 10.6 µM
IC50 (PBMCs; Homo sapiens, 24 hr assay, PBMC#2, read-out: IC50 (+/−S.D.) PBMC#2): 7.8 µM
IC50 (PBMCs; Homo sapiens, 72 hr assay, PBMC#1, read-out: IC50 (+/−S.D.) PBMC#1): 6.9 µM
IC50 (PBMCs; Homo sapiens, 72 hr assay, PBMC#2, read-out: IC50 (+/−S.D.) PBMC#2): 4.4 µM

Source: patent US11136409B2, “Compositions and methods for identification, assessment, prevention, and treatment of AML using USP10 biomarkers and modulators” (Dana-Farber Cancer Institute, Inc., priority 2016, dated 2021)
